In US10968200B2, “Salts of an LSD1 inhibitor and processes for preparing the same” (priority 2018, dated 2021):
Structures can show the parent of a compound that is named as a salt.

Experiments:
[1] = target: T1, LSD-1 enzyme (LSD1/KDM1A) (Homo sapiens, UniProt O60341); experiment: LANCE LSD1/KDM1A histone demethylase biochemical assay; conditions: 1 nM LSD-1 enzyme, 1 hour preincubation at 25° C., Biotin-labeled Histone H3 peptide substrate
T1 construct: purchased ENZO BML-SE544-0050
Protocol: LANCE LSD1/KDM1A demethylase assay-10 μL of 1 nM LSD-1 enzyme (ENZO BML-SE544-0050) in the assay buffer (50 mM Tris, pH 7.5, 0.01% Tween-20, 25 mM NaCl, 5 mM DTT) were preincubated for 1 hour at 25° C. with 0.8 μL compound/DMSO dotted in black 384 well polystyrene plates. Reactions were started by addition of 10 μL of assay buffer containing 0.4 μM Biotin-labeled Histone H3 peptide substrate: ART-K(Me1)-QTARKSTGGKAPRKQLA-GGK(Biotin) SEQ ID NO:1 (AnaSpec 64355) and incubated for 1 hour at 25° C. Reactions were stopped by addition of 10 μL 1× LANCE Detection Buffer (PerkinElmer CR97-100) supplemented with 1.5 nM Eu-anti-unmodified H3K4 Antibody (PerkinElmer TRF0404), and 225 nM LANCE Ultra Streptavidin (PerkinElmer TRF102) along with 0.9 mM Tranylcypromine-HCl (Millipore 616431). After stopping the reactions plates were incubated for 30 minutes and read on a PHERAstar FS plate reader (BMG Labtech).

[2] = Competitive slurry experiment, stability relationship between Forms II-V; assay type: physicochemical; conditions: competitive slurry of Forms II-V in methanol, 23-25° C., 65-75% humidity, XRPD after 4 h and 20 h
Protocol: The transformation of Compound 1 di-HCl solid forms was evaluated in competitive slurry experiments in methanol at 23-25° C. and 65-75% humidity. The experiments were performed with a mixture of four polymorphs (Form II through Form V), according to the following procedure.
10.0 mg of Compound 1 di-HCl Form II was added to a saturated solution of Compound 1 di-HCl Form II in methanol (1.0 mL) and stirred to give a thin slurry. A mixture of Form III (10.29 mg), Form IV (10.39 mg), and Form V (10.95 mg) were added to the slurry. The mixture was stirred for 4 h at 25° C.
A portion of the mixture was filtered after 4 h. The filtered solids were analyzed by XRPD and determined to be Form II in addition to a minor amount of amorphous solid.
A portion of the mixture was filtered after 20 h. The filtered solids were analyzed by XRPD and determined to be Form II in addition to a minor amount of amorphous solid. The sample was then dried under vacuum at 46-48° C. for 36 h. The dried solids were analyzed by XRPD and determined to be Form II.

Row | SMILES | IC50 [1] [nM] | relative stability of solid forms [2]
1 | N#CCC1(N2CCC(N[C@@H]3C[C@H]3c3ccccc3)CC2)CN(S(N)(=O)=O)C1 [Compound 1, 3-(cyanomethyl)-3-(4-{[(1R,2S)-2-phenylcyclopropyl]amino}piperidin-1-yl)azetidine-1-sulfonamide] | ≤ 100 | 
2 | N#CCC1(N2CCC(N[C@@H]3C[C@H]3c3ccccc3)CC2)CN(S(N)(=O)=O)C1 [Form II, 3-(cyanomethyl)-3-(4-{[(1R,2S)-2-phenylcyclopropyl]amino}piperidin-1-yl)azetidine-1-sulfonamide dihydrochloride] |  | most stable form
